pIC50: −log10 of the molar value. Read-outs that look alike come from different tables or passages of the source.
What was measured:
Format in all cases: cell-based
[1] = tested on: E. coli ATCC 25922; experiment: In vitro antibacterial activity assay (MIC, broth dilution); settings: Escherichia coli, ATCC25922
Description: (§1) The method used to indicate the activity of the compounds in this example is to record the minimum inhibitory concentration (MIC) of the compounds against bacteria. The specific experimental method is as follows:
(§2) 1. The bacterial liquid cultured from a single colony was taken, and diluted into autoclaved CAMHB broth in a ratio of 1:1000, and mixed well.
(§3) 2. The prepared drug solution was filtered through a sterile 0.22 µm syringe filter and placed in a sterile EP tube for later use.
(§4) 3. A 96-well plate was taken, and 20 µL of drug solution ([…]) was added to each well in the first column of the 96-well plate. Then, 180 µL of diluted bacterial liquid was added and mixed well (Perform 3 replicate rows for each drug).
(§5) The same process was performed for the hydrochloride drug.
(§6) 4. 100 μL of diluted bacterial liquid was added to each well in the remaining 11 columns of the 96-well plate. Drugs are the same as above.
(§7) 5. Serial dilution: 100 μL of liquid was taken from the first column to the second column, mixed well, then 100 μL of liquid was taken from the second column to the third column, mixed well, and so on, sequentially diluting down to the last column (column 12). After mixing column 12 well, 100 μL of liquid thereof was discarded. The drug concentration in each well was decreased by two-fold serially (the concentration in the first well is 40 μg/mL).
(§8) 6. Blank CAMHB broth without added bacteria liquid was added to 3 blank wells in the 96-well plate, as negative control.
(§9) 7. The diluted bacterial liquid was added to 3 blank wells in the 96-well plate, as positive control.
(§10) 8. Incubated at 37° C. for 16 hours.
(§11) 9. Results reading: the minimum inhibitory concentration is the minimum drug concentration at which no bacterial growth is visible to the naked eye and without turbidity.

[2] = tested on: S. aureus ATCC 43300; experiment: as above; settings: Staphylococcus aureus, ATCC43300
Description: as §1, §2, §3, §4, §5, §6, §7, §8, §9, §10, §11

[3] = tested on: Hela; experiment: In vitro anticancer activity test (MTT cell proliferation); settings: Homo sapiens, average proliferation inhibition rate at the dosage of 40 μM, read-out: Hela Average inhibition rate %
Experimental: (§12) The anticancer activity of the compounds was tested using an in vitro cancer cell tests. The specific test method is as follows:
(§13) 1. Cell recovery and culture method: the cryovial was taken out from the liquid nitrogen container firstly, soaked directly in 37° C. warm water, and shaked from time to time to let it thaw as soon as possible. Then, the cryovial was transferred to a clean bench, and the lid was open. The cell suspension was taken into a centrifuge tube using a rubber-tipped dropper and more than 10 times the culture medium was added, mixed well, and centrifuged at 50 g for 5 minutes. Then, the supernatant was discarded, complete culture medium containing 10% fetal bovine serum was added to resuspend the cells, the cells was counted, the cell density was adjusted, and then inoculated into a culture bottle. The culture bottle was placed in a cell culture incubator at 5% CO2 and 37° C. The complete culture medium was replaced once the next day and the culture was continued.
(§14) 2. Cell passaging method: adherent cells in the logarithmic growth phase were placed in a clean bench, the original culture medium was discarded, and washed three times with 1×PBS. An appropriate amount of 0.25% trypsin digestion solution was added to moisten the cells, and then the trypsin solution was aspirated. The cells were placed in a cell culture incubator at 5% CO2 and 37° C. for digestion for a suitable time, and observed under a microscope. When 90% of the cells become round, the cells were moved immediately to the clean bench and complete culture medium was added to terminate digestion. Then, the cells were dislodged by pipetting up and down with a rubber-tipped dropper to single cells. The cells were counted, and the cell density was adjusted. The cells were inoculated into a suitable culture bottle or dish, added enough complete culture medium, and placed in a cell culture incubator at 5% CO2 and 37° C. for static culture.
(§15) For suspension cells in the logarithmic phase, the original culture medium was directly centrifuged at 50 g for 5 minutes, the supernatant was discarded, and the cells were washed once with PBS and centrifuged. After discarding the supernatant, the complete culture medium was added and the cells were dispersed using a rubber-tipped dropper. The cells are counted, and the cell density was adjusted. The cells were inoculated into appropriate culture bottles or culture dishes, and sufficient complete culture medium was added, and the cells were cultured in a cell culture incubator at 5% CO2 and 37° C.
(§16) 3. Cell proliferation assay: cells in good state in logarithmic phase were taken and appropriate amount of the cells was inoculated into 96-well plates according to the cell passage treatment method, with each well containing 180 μL complete medium. After the cells growth was recovered and the number of cells in each well is 5000±500, a drug was added for treatment.
(§17) After drug treatment during the experimental time, MTT solution with a final concentration of 0.5 mg/mL was added to each well, and placed in a cell culture incubator at 5% CO2 and 37° C. to allow a fully reaction of MTT with cells. After 4 hours, the solution in the 96-well plate was discarded, 100 µL of DMSO was added, and shaked to dissolve the formazan precipitated at the bottom of the plate, and the absorbance value of samples was detected at a wavelength of 570 nm using a microplate reader. Calculation method of cell viability rate:
Table 4 lists some compounds that have inhibitory effects against both of bacteria and cancer cells. In the table, the inhibitory effects against cancer cells are shown: the average proliferation inhibition rate (%) against cancer cells at the dosage of 40 μM.

[4] = tested on: human colon cancer cell HCT 116; experiment: as above
Experimental: as §12, §13, §14, §15, §16
as §17, with “rate: […]” for “rate:”

[5] = tested on: human non-small cell lung cancer cell A549; experiment: as above
Experimental: as §12, §13, §14, §15, §16
as §17, with “rate: […]” for “rate:”

[6] = tested on: human osteosarcoma cell U2-OS; experiment: as above; settings: U2OS
Experimental: as §12, §13, §14, §15, §16
as §17, with “rate: […]” for “rate:”

[7] = tested on: human acute T-lymphoblastic leukemia cell Jurkat; experiment: as above
Experimental: as §12, §13, §14, §15

[8] = tested on: human bladder transitional cell carcinoma cell T24; experiment: as above; settings: T-24
Experimental: as §12, §13, §14, §15

[9] = tested on: human breast cancer cell MCF-7; experiment: as above; settings: MCF7
Experimental: as §12, §13, §14, §15

[10] = tested on: human breast ductal carcinoma cell T-47D; experiment: as above; settings: T47D
Experimental: as §12, §13, §14, §15

[11] = tested on: human epidermal carcinoma cell A431; experiment: as above; settings: A-431
Experimental: as §12, §13, §14, §15

[12] = tested on: human ovarian adenocarcinoma cell SK-OV-3; experiment: as above
Experimental: as §12, §13, §14, §15

O=C(CCl)Nc1ncc(-c2cc3c(cc2F)c(=O)c(C(=O)O)cn3C2CC2)cc1F [Example 135]
MIC ([1]; Table 3, read-out: MIC E. coli ATCC 25922): ≤ 0.1 µg/mL
MIC ([1]; Table 4, read-out: E. coli ATCC 25922 MIC): ≤ 1 µg/mL
MIC ([2]; Table 3, read-out: MIC S. aureus ATCC 43300): ≤ 0.1 µg/mL
MIC ([2]; Table 4, read-out: S. aureus ATCC 43300 MIC): ≤ 1 µg/mL
inhibition at 40 µM [3]: ≥ 50%
pIC50 [4]: 5.00 to 6.00
pIC50 [5]: 5.00 to 6.00
pIC50 [6]: 5.00 to 6.00
pIC50 [7]: 5.00 to 6.00
pIC50 [8]: 5.00 to 6.00
pIC50 [9]: 5.00 to 6.00
pIC50 [10]: 5.00 to 6.00
pIC50 [11]: 5.00 to 6.00
pIC50 [12]: 5.00 to 6.00

Reference: patent US20260224555A1, “NEW PHENYLQUINOLONE COMPOUND HAVING ANTIBACTERIAL AND ANTI-CANCER FUNCTIONS AND PREPARATION THEREOF” (AlphaMol Science Ltd (Shanghai), priority 2022, published 2026)
